Like-named read-outs stand apart in the source and are kept apart here.
Tests used:
Type in all cases: cell-based, Acinetobacter baumannii
[1] = system: A. baumannii LAC-4 strain; assay: broth microdilution checkerboard MIC/synergy; conditions: strain LAC-4
Procedure: (§1) Checkerboards were performed according to the CLSI parameters used for microbroth dilution MIC5. CA-MHB, iron-depleted CA-MHB (ID-CA-MHB) or RPMI supplemented with 10% FCS medium were used as specified and ID-CA-MHB was prepared according to CLSI guidelines. […] FICI is calculated as follows: […]
The checkerboards were performed in CA-MHB or ID-CA-MHB for cefiderocol.

[2] = system: panel of MDR clinical isolates of A. baumannii
Procedure: as §1

A. baumannii IHMA919656 = assay: broth microdilution checkerboard MIC/synergy; conditions: strain IHMA919656
Procedure: as §1

A. baumannii IHMA690517 = assay: broth microdilution checkerboard MIC/synergy; conditions: strain IHMA690517
Procedure: as §1

A. baumannii UNT191-1 = assay: broth microdilution checkerboard MIC/synergy
Procedure: as §1

A. baumannii UNT087-1 = assay: broth microdilution checkerboard MIC/synergy
Procedure: as §1

A. baumannii UNT239-1 = assay: broth microdilution checkerboard MIC/synergy; conditions: strain UNT239-1
Procedure: as §1

A. baumannii 401255-18 = assay: broth microdilution checkerboard MIC/synergy; conditions: for MIC: Acinetobacter baumannii, 40125518, strain 401255-18, read-out: MICs alone
Procedure: as §1

A. baumannii IHMA863866 = assay: broth microdilution checkerboard MIC/synergy; conditions: strain IHMA863866
Procedure: as §1

A. baumannii UNT238-1 = assay: broth microdilution checkerboard MIC/synergy; conditions: strain UNT238-1
Procedure: as §1

A. baumannii HUMC1 = assay: broth microdilution checkerboard MIC/synergy; conditions: strain HUMC1
Procedure: as §1

A. baumannii ACC00535 = assay: broth microdilution checkerboard MIC/synergy; conditions: strain ACC00535; rifabutin/SPR741 in combination
Procedure: as §1

A. baumannii UNT091-1 = assay: broth microdilution checkerboard MIC/synergy
Procedure: as §1

A. baumannii IHMA1013816 = assay: broth microdilution checkerboard MIC/synergy; conditions: strain IHMA1013816
Procedure: as §1

A. baumannii 402608-17 = assay: broth microdilution checkerboard MIC/synergy; conditions: for MIC: Acinetobacter baumannii, 40260817, strain 402608-17, read-out: MICs alone
Procedure: as §1

A. baumannii 402292-17 = assay: broth microdilution checkerboard MIC/synergy; conditions: for MIC: Acinetobacter baumannii, 40229217, strain 402292-17, read-out: MICs alone
Procedure: as §1

A. baumannii IHMA867231 = assay: broth microdilution checkerboard MIC/synergy; conditions: for MIC: Acinetobacter baumannii, IHMA867231, strain IHMA867231, read-out: MICs alone
Procedure: as §1

A. baumannii 401046-18 = assay: broth microdilution checkerboard MIC/synergy; conditions: for MIC: Acinetobacter baumannii, 40104618, strain 401046-18, read-out: MICs alone
Procedure: as §1

[3] = antibiotic alone, rifabutin/colistin checkerboard, CA-MHB
[4] = rifabutin alone, rifabutin/SPR741 checkerboard
[5] = rifabutin/SPR741 in combination
[6] = rifabutin/cefiderocol in combination, ID-CA-MHB
[7] = rifabutin/colistin in combination, CA-MHB
[8] = rifabutin/cefiderocol in combination
[9] = antibiotic alone, rifabutin/cefiderocol checkerboard

CO[C@H]1/C=C/O[C@@]2(C)Oc3c(C)c(O)c4c(c3C2=O)C2=NC3(CCN(CC(C)C)CC3)NC2=C(NC(=O)/C(C)=C\C=C\[C@H](C)[C@H](O)[C@@H](C)[C@@H](O)[C@@H](C)[C@H](OC(C)=O)[C@@H]1C)C4=O [Rifabutin, rifabutin]
0.03 mg/L: MICs combi (A. baumannii IHMA919656; [7])
0.25 mg/L: MICs combi / in combination (A. baumannii UNT087-1; strain UNT087-1, rifabutin/SPR741 in combination) | MICs combi / in combination (A. baumannii UNT239-1; [5]) | MICs combi / in combination (A. baumannii HUMC1; [5])
> 32 µg/mL: MIC (A. baumannii 401255-18; [4]) | MIC (A. baumannii 402608-17; [4]) | MIC (A. baumannii 402292-17; [4]) | MIC (A. baumannii IHMA867231; [4]) | MIC (A. baumannii 401046-18; [4])
2 mg/L: MICs combi / in combination (A. baumannii 401255-18; strain 401255-18, rifabutin/SPR741 in combination) | MICs combi (A. baumannii 401255-18; strain 401255-18, rifabutin/colistin in combination, CA-MHB) | MICs combi / in combination (A. baumannii IHMA863866; [5]) | MICs combi (A. baumannii UNT238-1; [7]) | MICs combi (A. baumannii UNT091-1; strain UNT091-1, rifabutin/cefiderocol in combination) | MICs combi / in combination (A. baumannii IHMA1013816; [5]) | MICs combi / in combination (A. baumannii 402608-17; strain 402608-17, rifabutin/SPR741 in combination) | MICs combi (A. baumannii 402608-17; strain 402608-17, rifabutin/colistin in combination, CA-MHB) | MICs combi / in combination (A. baumannii 402292-17; strain 402292-17, rifabutin/SPR741 in combination) | MICs combi (A. baumannii IHMA867231; strain IHMA867231, rifabutin/colistin in combination, CA-MHB) | MICs combi / in combination (A. baumannii 401046-18; strain 401046-18, rifabutin/SPR741 in combination)
0.06 mg/L: MICs combi / in combination [1, 5] | MICs combi (A. baumannii IHMA690517; [7]) | MICs combi (A. baumannii IHMA863866; [7]) | MICs combi / in combination (A. baumannii UNT091-1; strain UNT091-1, rifabutin/SPR741 in combination)
0.125 mg/L: MICs combi (A. baumannii IHMA863866; [8]) | MICs combi / in combination (A. baumannii UNT238-1; [5]) | MICs combi (A. baumannii HUMC1; [7]) | MICs combi (A. baumannii IHMA1013816; [7])
32 mg/L: MICs combi (A. baumannii 402608-17; strain 402608-17, rifabutin/cefiderocol in combination)
0.5 mg/L: MICs combi / in combination (A. baumannii UNT191-1; strain UNT191-1, rifabutin/SPR741 in combination) | MICs combi (A. baumannii UNT191-1; strain UNT191-1, rifabutin/cefiderocol in combination, ID-CA-MHB) | MICs combi (A. baumannii UNT087-1; strain UNT087-1, rifabutin/colistin in combination, CA-MHB) | MICs combi / in combination (A. baumannii ACC00535)
0.016 mg/L: MICs combi [1, 7]
>32 mg/L: MICs combi / in combination (A. baumannii IHMA867231; strain IHMA867231, rifabutin/SPR741 in combination)
4 mg/L: MICs alone [1, 3] | MICs alone [1, 4] | MICs combi (A. baumannii IHMA919656; [8]) | MICs combi (A. baumannii IHMA690517; [8]) | MICs combi (A. baumannii UNT087-1; strain UNT087-1, rifabutin/cefiderocol in combination) | MICs alone (A. baumannii UNT239-1; [3]) | MICs alone (A. baumannii UNT239-1; [4]) | MICs alone (A. baumannii IHMA863866; [3]) | MICs alone (A. baumannii IHMA863866; [4]) | MICs combi (A. baumannii UNT238-1; [6]) | MICs alone (A. baumannii HUMC1; [3]) | MICs alone (A. baumannii HUMC1; [4]) | MICs combi (A. baumannii HUMC1; [8]) | MICs combi (A. baumannii IHMA1013816; [8]) | MICs combi (A. baumannii 402292-17; strain 402292-17, rifabutin/colistin in combination, CA-MHB)
128 mg/L: MICs combi (A. baumannii 402292-17; strain 402292-17, rifabutin/cefiderocol in combination) | MICs combi (A. baumannii IHMA867231; strain IHMA867231, rifabutin/cefiderocol in combination)
0.125 to 2 mg/L: rifabutin combination MICs ([2]; in combination with SPR741, most of the strains)
16 µg/mL: MIC (A. baumannii UNT191-1; Acinetobacter baumannii, UNT1911, strain UNT191-1, antibiotic alone, rifabutin/colistin checkerboard, CA-MHB, read-out: MICs alone) | MIC (A. baumannii UNT087-1; Acinetobacter baumannii, UNT0871, strain UNT087-1, antibiotic alone, rifabutin/colistin checkerboard, CA-MHB, read-out: MICs alone)
≥ 32 fold: shift in rifabutin MIC ([2]; in combination with colistin, isolates with a mutation in the rpoB gene)
1 mg/L: MICs combi [1, 6] | MICs combi / in combination (A. baumannii IHMA919656; [5]) | MICs combi / in combination (A. baumannii IHMA690517; [5]) | MICs combi (A. baumannii UNT239-1; [6]) | MICs combi (A. baumannii UNT239-1; [7]) | MICs combi (A. baumannii 401046-18; strain 401046-18, rifabutin/colistin in combination, CA-MHB)
0.25 µg/mL: MIC (A. baumannii UNT091-1; Acinetobacter baumannii, UNT0911, strain UNT091-1, rifabutin alone, rifabutin/SPR741 checkerboard, read-out: MICs alone)
32 µg/mL: MIC (A. baumannii 401255-18; [9]) | MIC (A. baumannii 401046-18; antibiotic alone, rifabutin/cefiderocol checkerboard, ID-CA-MHB)
> 128 µg/mL: MIC (A. baumannii 402292-17; [9]) | MIC (A. baumannii 402292-17; [3]) | MIC (A. baumannii IHMA867231; [9]) | MIC (A. baumannii IHMA867231; [3])
16 mg/L: MICs combi (A. baumannii 401255-18; strain 401255-18, rifabutin/cefiderocol in combination) | MICs combi (A. baumannii 401046-18; strain 401046-18, rifabutin/cefiderocol in combination, ID-CA-MHB)
128 µg/mL: MIC (A. baumannii 401255-18; [3]) | MIC (A. baumannii 402608-17; [9]) | MIC (A. baumannii 402608-17; [3])
<0.03 mg/L: MICs combi (A. baumannii UNT191-1; strain UNT191-1, rifabutin/colistin in combination, CA-MHB) | MICs combi (A. baumannii UNT091-1; strain UNT091-1, rifabutin/colistin in combination, CA-MHB)
64 µg/mL: MIC (A. baumannii 401046-18; [3])
